Literature values, collected in publication PMC9091901 (Journal of Pharmaceutical Analysis, 2021).

conditions: octanol-water partition coefficient; ref DrugBank database

Going from CCN(CC)CCOC(=O)c1ccc(N)cc1 [Procaine] to CCN(CC)Cc1cc(Nc2ccnc3cc(Cl)ccc23)ccc1O [Amodiaquine], the “log P” value rises from 2.14 to 3.70.

Compared with CC(C)(N)Cc1ccc(Cl)cc1 [Chlorphentermine], CCOC(=O)C(C)(C)Oc1ccc(Cl)cc1 [Clofibrate] is higher in “log P” value: 2.60 for the first, 3.30 for the second.

First: NCC[C@H](O)C(=O)N[C@@H]1C[C@H](N)[C@@H](O[C@H]2O[C@H](CN)[C@@H](O)[C@H](O)[C@H]2O)[C@H](O)[C@H]1O[C@H]1O[C@H](CO)[C@@H](O)[C@H](N)[C@H]1O [Amikacin]
Second: CCOC(=O)C1=C(C)NC(C)=C(C(=O)OC)C1c1cccc([N+](=O)[O-])c1 (centres unmarked) [Nitrendipine]
The “log P” value of the first is lower: −3.20 for the first, 2.88 for the second.

First: CC(C)NCC(O)c1ccc(NS(C)(=O)=O)cc1 (centres unmarked) [Sotalol]
Second: CC1Cc2ccccc2N1NC(=O)c1ccc(Cl)c(S(N)(=O)=O)c1 (centres unmarked) [Indapamide]
The “log P” value of the first is lower: −0.40 for the first, 2.52 for the second.

Going from CC(C)(C)c1cc(O)ccc1O [Tert-butylhydroquinone] to O=c1cc(O)c2ccccc2o1 [4-hydroxycoumarin], the “log P” value falls from 2.91 to 1.01.

Compared with O=c1[nH]c2ccccc2n1CCCN1CCC(n2c(=O)[nH]c3cc(Cl)ccc32)CC1 [Domperidone], CC(COc1ccccc1)N(CCCl)Cc1ccccc1 (centres unmarked) [Phenoxybenzamine] is higher in “log P” value: 3.90 for the first, 4.70 for the second.

First: O=C(O)c1cccc(C(=O)O)n1 [2,6-pyridinedicarboxylic acid]
Second: CN1C(=O)NC(=O)C(C)(C2=CCCCC2)C1=O (centres unmarked) [Hexobarbital]
The “log P” value of the first is lower: −0.44 for the first, 1.98 for the second.
